These results are taken from patent publication US20240157020A1, “SUTURES” (The Queen's University of Belfast, priority 2021, published 2024).

Converted amounts (≈) assume the structure as drawn. Like-named read-outs stand apart in the source and are kept apart here.

Common to all, as to type: cell-based
One test relates to Pseudomonas aeruginosa. The test is described as follows: Disc diffusion inhibition zone assay. The conditions noted are these: gentamicin sulphate 10 mg/mL, THEDES neat, average n = 9 ± S.D. Background: A growth-free zone around the sample is the usual read-out of agar diffusion tests.
For test [1], the system named is Staphylococcus aureus NCTC 10788. The test is described as follows: Disc diffusion inhibition zone assay. The conditions noted are these: gentamicin sulphate 10 mg/mL, THEDES neat, average n = 9 ± S.D. How it is done: (§1) The disc diffusion assays were carried out against Staphylococcus aureus (FIG. 7, Gram-positive, frequently found in the upper respiratory tract and on the skin) and Klebsiella pneumoniae (FIG. 8, Gram-negative, facultative anaerobic, typically residing in human intestines and faeces). In general, the calculated inhibition zones of gentamicin sulphate (10 mg/mL) and the neat THEDES were very similar, confirming the antimicrobial activity of the THEDES against both gram-positive and gram-negative bacteria (Table 3).

The test system of test [2] is Klebsiella pneumoniae ATCC 700603. The test is described as follows: Disc diffusion inhibition zone assay. Conditions: gentamicin sulphate 10 mg/mL, THEDES neat, average n = 9 ± S.D. How it is done:
as §1

A further test deals with P. aeruginosa NCTC 10783. Kind of test: MIC and MBC determination. Conditions: Pseudomonas aeruginosa, NCTC10783. How it is done: (§2) The antimicrobial activity of the THEDES was also assessed by determining the minimum inhibitory concentration (MIC) and the minimum bactericidal concentration (MBC) of MET, MA and the equimolar THEDES, respectively. Concentrations of 6 mg/mL MET, MA and MET-MA 1:1 were used to determine the MIC and MBC values against gram-positive bacteria E. faecalis, S. epidermidis and S. aureus, and gram-negative bacteria P. aeruginosa, E. coli and K. pneumoniae; results are shown in Table 4.

Test [3] relates to S. aureus NCTC 12493 (MRSA). Kind of test: MIC and MBC determination. As for the experimental part:
as §2

A further test deals with S. aureus ATCC 29213. Kind of test: MIC and MBC determination. How it is done: as §2
Test [4] deals with S. epidermidis ATCC 35984. The test is described as follows: MIC and MBC determination. Conditions: Staphylococcus epidermidis, ATCC35984. As for the experimental part: as §2
A further test has as its system E. coli NCTC 8196. The test is described as follows: MIC and MBC determination. The conditions noted are these: Escherichia coli, NCTC8196. As for the experimental part:
as §2

The test system of another test is E. faecalis ATCC 29212. The test is described as follows: MIC and MBC determination. Conditions: Enterococcus faecalis, ATCC29212. As for the experimental part:
as §2

The test system of a further test is P. aeruginosa ATCC 27853. Kind of test: MIC and MBC determination. Conditions: Pseudomonas aeruginosa, ATCC27853. As for the experimental part: as §2
In a further test the test system is S. aureus NCTC 10788. Kind of test: MIC and MBC determination. As for the experimental part: as §2
Test [5] has as its system K. pneumoniae ATCC 700603. Kind of test: MIC and MBC determination. The conditions noted are these: Klebsiella pneumoniae, ATCC700603. How it is done: as §2
[6] abbreviates: Staphylococcus aureus, S. aureus NCTC 12493 (MRSA).
The mark [7] stands for this setting: Staphylococcus aureus, ATCC29213, S. aureus ATCC 29213.
The mark [8] stands for this setting: Staphylococcus aureus, NCTC10788, S. aureus NCTC 10788.

Turning to gentamicin sulphate, the figures for the “ZOI Diameter” value (in the test with Pseudomonas aeruginosa; in test [1]; in [2]) were 26.04 ± 1.75 mm, 46.09 ± 1.69 mm and 24.13 ± 1.09 mm, respectively.
One may read the MBC as the smallest concentration meeting the test's criterion for killing. A low value points to more potent killing. By MIC is commonly meant the smallest concentration in the dilution series that meets the test's criterion for growth inhibition. On to `O=C(O)/C=C\C(=O)O` [MA, maleic acid], for which the MBC (in the test on P. aeruginosa NCTC 10783; in test [3] (setting [6]); against S. aureus ATCC 29213 (setting [7]); in test [4]; in the test on E. coli NCTC 8196; in the test with E. faecalis ATCC 29212) was greater than 6000 µg/mL throughout. Moreover, the MBC (in the test with P. aeruginosa ATCC 27853; in the test with S. aureus NCTC 10788 (setting [8]); in [5]) was greater than 6000 µg/mL each time. For the same molecule, the MIC against P. aeruginosa NCTC 10783 came to 6000 µg/mL (≈ 51.7 mM); in test [3] (Staphylococcus aureus, S. aureus NCTC 12493 (MRSA), read-out: MIC), 6000 µg/mL (≈ 51.7 mM); with S. aureus ATCC 29213 (Staphylococcus aureus, ATCC29213, S. aureus ATCC 29213, read-out: MIC), 6000 µg/mL (≈ 51.7 mM); in test [4], 6000 µg/mL (≈ 51.7 mM); in the test with E. coli NCTC 8196, 6000 µg/mL (≈ 51.7 mM); in the test with E. faecalis ATCC 29212, 6000 µg/mL (≈ 51.7 mM). Also, the MIC was 6000 µg/mL (≈ 51.7 mM) in the test with P. aeruginosa ATCC 27853; 6000 µg/mL (≈ 51.7 mM) with S. aureus NCTC 10788 (Staphylococcus aureus, NCTC10788, S. aureus NCTC 10788, read-out: MIC); greater than 6000 µg/mL in test [5].
Consider `Cc1ncc([N+](=O)[O-])n1CCO` [MET, metronidazole], for which the MBC with P. aeruginosa NCTC 10783 was greater than 6000 µg/mL; in test [3] (setting [6]) it was greater than 6000 µg/mL; against S. aureus ATCC 29213 (setting [7]), greater than 6000 µg/mL; in test [4], 3000 µg/mL (≈ 17.5 mM); against E. coli NCTC 8196 it was greater than 6000 µg/mL; in the test with E. faecalis ATCC 29212 it was greater than 6000 µg/mL. For the same molecule, the MBC in the test on P. aeruginosa ATCC 27853 is greater than 6000 µg/mL; against S. aureus NCTC 10788 (setting [8]) it was greater than 6000 µg/mL; in test [5], 6000 µg/mL (≈ 35.1 mM). Also, the MIC is greater than 6000 µg/mL against P. aeruginosa NCTC 10783; greater than 6000 µg/mL in test [3] (S. aureus NCTC 12493 (MRSA)); greater than 6000 µg/mL in test [3] (Staphylococcus aureus, methicillin-resistant strain of S. aureus (MRSA), read-out: MIC); 6000 µg/mL (≈ 35.1 mM) in the test with S. aureus ATCC 29213 (S. aureus ATCC 29213); 6000 µg/mL (≈ 35.1 mM) with S. aureus ATCC 29213 (Staphylococcus aureus, ATCC29213, non-methicillin-resistant S. aureus strain, read-out: MIC); 3000 µg/mL (≈ 17.5 mM) in [4]. Further, the MIC against E. coli NCTC 8196 is greater than 6000 µg/mL; against E. faecalis ATCC 29212, greater than 6000 µg/mL; in the test with P. aeruginosa ATCC 27853, greater than 6000 µg/mL; against S. aureus NCTC 10788 (S. aureus NCTC 10788) it was 6000 µg/mL (≈ 35.1 mM); in the test on S. aureus NCTC 10788 (Staphylococcus aureus, NCTC10788, non-methicillin-resistant S. aureus strain, read-out: MIC) it was 6000 µg/mL (≈ 35.1 mM); in [5], 6000 µg/mL (≈ 35.1 mM).
